Experimental data from patent EP2487185A1, “Hexapeptide with improved activity in the repair of cellular DNA of dermal cells” (Clinuvel Pharmaceuticals Limited, priority 2011, dated 2012).
Non-standard residues stand in square brackets, D forms with d. Nle = CCCC[C@H](N)C(=O)O

How the values were obtained:
Assay type in all cases: cell-based, human
melanocytes strain 1505b = assay: cAMP levels (125I radioimmunoassay), dose-response; conditions: at 1 nM, 45 min, 0.1 mM IBMX
Description: Dose-response experiments were carried out on three melanocytic strains, namely strains 1513c, 1505b and 105c melanocytes were treated with 1 pM-10 nM CUV9900 or NDP-MSH, or with 0.1-10 nM MSH for 45 minutes in the presence of 0.1 mM isobutyl methylxanthine (IBMX). The results obtained from strain 1513c are shown in Fig. 3, the results obtained from strain 1505b are shown in Fig. 5a and the results obtained from strain 105c are shown in Fig. 5b. The strains 1505b and 1513c were obtained from the same human adult while the strain 105c was obtained from another human adult. Cyclic AMP is the second messenger for the melanocortin-1 receptor, and assessment is usually performed indicating cellular activity reflective of melanogenesis. Cyclic AMP levels were determined using ^125I-labeled radioimmunoassay kit (Perkin Elmer, Waltham, MA), in human melanocytes that were treated with 0 (control), 0.1-10.0 nM α-MSH, or 0.001-10 nM NDP-MSH or 0.001-10.0 nM CUV 9900 for 45 min. in the presence of 0.1 mM IBMX, a phosphodiesterase inhibitor to prevent cAMP degradation. Triplicate wells were included in each group, and duplicate samples from each well were assayed for cAMP levels. Each data point is the mean percent of control of 6 determinations/group ±S.E.

Melanocytes = assay: DNA damage as measured by cyclobutane pyrimidine dimers (CPD), flow cytometry; conditions: 48 h after 105 mJ/cm^2 UV; 10 nM α-MSH, 1 nM NDP-MSH or 1 nM CUV9900, 4 days prior to and 2 days after UV
Description: Cyclobutane pyrimidine dimers (CPD), the major determinant of UV induced DNA photoproducts, were detected using flow cytometry analysis.
Melanocytes were pretreated with 0 (control), 10 nM α-MSH or 1 nM NDP-MSH or 1 nM CUV9900 for 4 days prior to, and 2 days after exposure to 105 mJ/cm^2 UV, harvested 48 hours post irradiation, fixated with 70% ethanol, the DNA denatured with 1N HCl/0.2 mg/ml pepsin, then renaturated with sodium tetraborate. Melanocytes were blocked and incubated overnight at 4°C with the anti-CPD antibody (diluted 1:500; TDM-2 clone), then with goat anti-mouse IgG Alexa Fluor 488 (Invitrogen, Carlsbad CA) for 1 hour, and finally resuspended in PBS containing RNase A and propidium iodide. Melanocytes were analyzed on a Coulter EPICS XL flow cytometer (Beckman Coulter) using a 488nm argon ion laser A 525 band pass filter was used for the Alexa fluor 488 and a 620 band pass filter for the propidium iodide.

melanocyte strain 1505b = assay: Tyrosinase activity as a measure of stability / residual effect; conditions: for Tyrosinase activity, column 1 / Tyrosinase activity, column 2 / Tyrosinase activity, column 3 / Tyrosinase activity, Mean: STRAIN 1505b; for Tyrosinase activity, column 1: Table 6 (Fig. 8), after 3 days of treatment; for Tyrosinase activity, column 1 / Tyrosinase activity, column 2 / Tyrosinase activity, column 3: 1nM; for Tyrosinase activity, column 2 / Tyrosinase activity, column 3 / Tyrosinase activity, Mean: Table 6; for Tyrosinase activity, column 2: column 2, not defined; for Tyrosinase activity, column 3: column 3, apparently 4 days after peptide removal; for Tyrosinase activity, Mean: mean of columns 1-3
Description: To determine the residual effect of CUV9900, as compared to NDP-MSH and α-MSH, on tyrosinase activity, melanocytes were treated with either CUV9900 or NDP-MSH at the concentrations previously described for a total of 3 days. Tyrosinase activity was measured at the end of the 3 days of treatment, and 2 and 4 days after maintenance of the melanocytes in the complete absence of any treatment.
(§1) With continued reference to Figs. 7, 8 and 9, to determine the stability of CUV9900 versus that of NDP-MSH and α-MSH, melanocytes were treated with 1 nM of each peptide, namely with CUV9900, NDP-MSH and α-MSH, for a total of 6 days, or with 1 nM peptides that were incubated for 5 hours at 37 °C prior to addition to the cultures, every other day, for a total of 6 days. Tyrosinase activity was measured at the end of treatment. In the experiments, cell number represents the mean percent of control of 3 determinations/ group ±SE, and tyrosinase activity data represent the mean percent of control of 6 determinations ±S.E. It should be noted that for the sake of reproducibility the experiment of strain 1513c of Fig. 9 was performed once more 6 months later than the experiment of Fig. 7.
Melanocytes were treated for 3 days with the designated concentrations of CUV9900, NDP-MSH, or MSH, then maintained in absence of peptides for 4 days. Tyrosinase activity was determined 3 days after treatment.

melanocyte strain 103c = assay: UV-induced apoptosis by Annexin Va staining, flow cytometry; conditions: 1 nM, 4 days prior and 1 day following 105 mJ/cm^2 UV
Description: With reference to Fig. 12 and 13, melanocytes were maintained for the duration of the experiment in medium lacking bovine pituitary extract (BPE) to determine the survival effect of α-MSH or its analogs in the absence of the anti-apoptotic effect of TPA. Melanocytes were treated with 0, 1 nM α-MSH, 1 µM Forskolin, or 1 nM NDP-MSH or CUV9900 for 4 days prior to, and 24 h after exposure to a dose of 105 mJ/cm^2 UV, then stained for Annexin Va staining. The data are represented as percent increase above control, with triplicate dishes included in each group.
Comparison of the effect of CUV9900, NDP-MSH and MSH on the UV-induced apoptosis were made in the melanocyte strains 103c and melanocyte strain 1513c of Figs. 12 and 13, respectively. Both strains were treated with 1 nM CUV9900, NDP and MSH, respectively for 4 days prior and 1 day following irradiation. Floating as well as attached cells were harvested and stained for Annexin V, and analyzed by flow cytometry.

melanocytic strain 1505b = assay: UV-induced generation of hydrogen peroxide (luminol luminescence); conditions: for UV-induced hydrogen peroxide generation: strain 1505b, 105 mJ/cm^2 UV, 0, 30 and 45 minutes after UV
Excerpt: With reference to Figs. 10 and 11, melanocytes were irradiated with a bank of FS 20 lamps, with 75% emission in the UVB, and 25% emission in the UVA spectra, with peak emission at 313 nm wavelength. Any emission of UVC rays from the UV source (FS 20 lamps) was blocked by Kodacel filter. Prior to irradiation, the culture medium was replaced by PBS, which was removed after UV exposure, and fresh medium added.
Melanocytes were irradiated with 105 mJ/cm^2 UV, and treated immediately while in PBS with 0, 1 nM α-MSH or 1 nM CUV9900. Generation of hydrogen peroxide, representative of reactive oxygen species (ROS), was determined by measuring the luminescence of luminol at 0, 30, and 45 min after UV exposure. Triplicate dishes were included in each group, and duplicate samples from each dish were used for measurement of hydrogen peroxide at each time point. Each data point represents the mean of 6 determinations/group ±S.E.

melanocyte strain 1513c = assay: Cell proliferation as a measure of stability; conditions: for Cell proliferation, column 2: column 2, not defined; for Cell proliferation, Mean [1+2]: STRAIN 1513c, mean over experiments [1] and [2]
Description: as §1
Peptides were incubated at 37 degrees Celsius for 5 hours and then split into groups. Cell proliferation was a measure of stability, whereby the experiments on strain 1513c were divided in period 1 and 2 under standard conditions.

[1] = STRAIN 1513c [1], Table 1, mean of columns 1-3
[2] = STRAIN 1513c [2], Table 2, mean

| Substance | cAMP, potency comparison (melanocytes strain 1505b) | Absolute values of CPD products (CPD median fluorescence intensity) (Melanocytes) | Tyrosinase activity, column 1 (melanocyte strain 1505b) | Tyrosinase activity, column 2 (melanocyte strain 1505b) | Tyrosinase activity, column 3 (melanocyte strain 1505b) | Tyrosinase activity, Mean (melanocyte strain 1505b) | effect on tyrosinase activity after 3 days of treatment (melanocyte strain 1505b; strain 1505b, 0.1 nM CUV9900, 1 nM MSH) | residual effects 4 days after peptide removal, comparison with MSH (melanocyte strain 1505b; strain 1505b, 0.1 nM CUV9900 vs 1 nM MSH) | anti-apoptotic effect (UV-induced apoptosis, Annexin V) (melanocyte strain 103c) | reducing the generation of hydrogen peroxide, comparison to NDP-MSH and MSH (melanocytic strain 1505b; at 45 minutes after UV) | hydrogen peroxide generation, comparison (melanocytic strain 1505b; at 45 minutes after irradiation, 1 nM, strain not given) | UV-induced hydrogen peroxide generation (melanocytic strain 1505b; 1 nM) | Cell proliferation, column 2 (melanocyte strain 1513c; STRAIN 1513c [1], Table 1, 1nM) | Cell proliferation, Mean (melanocyte strain 1513c; [1]) | Cell proliferation, column 2 (melanocyte strain 1513c; STRAIN 1513c [2], Table 2) | Cell proliferation, Mean (melanocyte strain 1513c; [2]) | Cell proliferation, Mean [1+2] (melanocyte strain 1513c; Table 2) |
| --- | --- | --- | --- | --- | --- | --- | --- | --- | --- | --- | --- | --- | --- | --- | --- | --- | --- |
| Ac-Nle-Glu His-D-Phe-Arg-Trp-NH2 (Ac-[Nle]EH[dF]RW-NH2; SMILES CCCC[C@H](NC(C)=O)C(=O)N[C@@H](CCC(=O)O)C(=O)N[C@@H](Cc1c[nH]cn1)C(=O)N[C@H](Cc1ccccc1)C(=O)N[C@@H](CCCNC(=N)N)C(=O)N[C@@H](Cc1c[nH]c2ccccc12)C(N)=O) [CUV9900, hexapeptide, alpha-MSH analogue] | more potent than MSH | ~11.55 | 259 % of control | 199 % of control | 126 % of control | 194.7 % of control | 259 % of control | equal | equal anti-apoptotic effect than NDP-MSH | most effective at reducing the generation of hydrogen peroxide | lower hydrogen peroxide generation in comparison with both NDP-MSH and MSH | significant reduction of UV-induced hydrogen peroxide generation | 108 % of control | 110.7 % of control | 119.8 % of control | 119.9 % of control | 114.3 % of control |
| Ac-Ser-Tyr-Ser-Nle-Glu-His-D-Phe-Arg-Trp-Gly-Lys-Pro-Val-NH2 [NDP-MSH, reference compound] | – | ~12.5 | 175 % of control | 155 % of control | 115 % of control | 148.3 % of control | – | – | – | – | – | significant reduction of UV-induced hydrogen peroxide generation | 115 % of control | 112.7 % of control | 117.5 % of control | 115.0 % of control | 113.6 % of control |
